Literature values, collected in US6773610B2, “Method for controlling biofilm” (priority 1999, dated 2004).

System: bacteria and viruses
Conditions: versus chlorine

O=[O+][O-] [Ozone]
Speed of deactivation of bacteria and viruses relative to chlorine: 3125 times faster
